Usually IC50 stands for the concentration needed to halve the response being measured. A higher IC50 goes with lower potency. What is called melting point is the temperature, or range, at which the solid turns liquid.

The values below come from patent US6667335B2, “Imidazole derivatives” (Hoffmann-La Roche Inc., priority 2001, dated 2003).

Structures can show the parent of a compound that is named as a salt.

The first series deals with T1, NMDA-receptor subtype 2B (Rattus norvegicus, UniProt P35439+Q00960).
T1 construct: Membranes were prepared by homogenization of the whole brain minus cerebellum and medulla oblongata; from tissue; host or cells: rat whole brain minus cerebellum and medulla oblongata, membrane preparation
T1 sequence (Q00960 27-1482, other chains not shown): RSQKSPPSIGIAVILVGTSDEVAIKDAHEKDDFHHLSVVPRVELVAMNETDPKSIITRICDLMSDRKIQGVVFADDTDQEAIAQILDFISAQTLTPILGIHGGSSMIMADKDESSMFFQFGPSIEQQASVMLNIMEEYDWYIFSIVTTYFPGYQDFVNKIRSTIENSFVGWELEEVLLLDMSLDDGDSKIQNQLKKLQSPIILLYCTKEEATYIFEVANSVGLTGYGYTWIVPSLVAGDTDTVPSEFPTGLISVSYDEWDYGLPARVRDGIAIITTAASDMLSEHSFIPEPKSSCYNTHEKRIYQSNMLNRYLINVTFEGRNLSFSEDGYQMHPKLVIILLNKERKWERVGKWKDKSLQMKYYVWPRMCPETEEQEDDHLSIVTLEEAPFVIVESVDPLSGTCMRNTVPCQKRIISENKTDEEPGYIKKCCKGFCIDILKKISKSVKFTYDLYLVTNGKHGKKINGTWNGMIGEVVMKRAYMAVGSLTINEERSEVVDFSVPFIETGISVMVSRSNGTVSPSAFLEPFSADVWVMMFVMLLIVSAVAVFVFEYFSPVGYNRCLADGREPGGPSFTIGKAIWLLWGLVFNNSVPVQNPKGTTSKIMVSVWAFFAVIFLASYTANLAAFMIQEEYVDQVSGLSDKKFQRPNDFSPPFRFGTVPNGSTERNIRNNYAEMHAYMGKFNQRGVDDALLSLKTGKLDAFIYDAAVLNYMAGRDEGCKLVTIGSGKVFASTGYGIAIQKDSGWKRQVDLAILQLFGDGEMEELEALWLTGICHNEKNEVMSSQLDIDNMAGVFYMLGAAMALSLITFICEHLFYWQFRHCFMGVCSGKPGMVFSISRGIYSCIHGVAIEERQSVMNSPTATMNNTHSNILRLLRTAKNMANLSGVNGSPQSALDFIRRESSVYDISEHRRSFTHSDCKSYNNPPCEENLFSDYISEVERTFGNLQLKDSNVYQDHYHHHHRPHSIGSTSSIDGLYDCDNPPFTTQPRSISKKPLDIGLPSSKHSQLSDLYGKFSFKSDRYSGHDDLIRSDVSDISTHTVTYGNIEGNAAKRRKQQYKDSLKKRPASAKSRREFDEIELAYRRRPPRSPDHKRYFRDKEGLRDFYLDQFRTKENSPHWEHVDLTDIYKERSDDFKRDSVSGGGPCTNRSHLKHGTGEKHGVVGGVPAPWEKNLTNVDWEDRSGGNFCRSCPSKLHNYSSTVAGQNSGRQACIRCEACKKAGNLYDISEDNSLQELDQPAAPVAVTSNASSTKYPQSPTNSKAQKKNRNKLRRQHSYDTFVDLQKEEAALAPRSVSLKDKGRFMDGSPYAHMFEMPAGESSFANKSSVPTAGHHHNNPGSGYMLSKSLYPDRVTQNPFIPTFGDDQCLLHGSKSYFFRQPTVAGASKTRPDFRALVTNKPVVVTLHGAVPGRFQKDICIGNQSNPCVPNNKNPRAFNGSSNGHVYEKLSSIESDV
Briefly: 3H-Ro 25-6981 binding (displacement) on rat brain membranes. The following applies: displacement of 5 nM 3H-Ro 25-6981, rat whole brain membranes (minus cerebellum and medulla oblongata), 2 hours at 4° C. Here is the method: ^3H[R-(R*,S*)]-(α-(4-Hydroxy-phenyl)-β-methyl-4-(phenyl-methyl)-1-piperidine propanol)binding
Male Füllinsdorf albino rats weighing between 150-200 g were used. Membranes were prepared by homogenization of the whole brain minus cerebellum and medulla oblongata with a Polytron (10.000 rpm, 30 seconds), in 25 volumes of a cold Tris-HCl 50 mM, EDTA 10 mM, pH 7.1 buffer. The homogenate was centrifuged at 48,000 g for 10 minutes at 4° C. The pellet was resuspended using the Polytron in the same volume of buffer and the homogenate was incubated at 37° C. for 10 minutes. After centrifugation the pellet was homogenized in the same buffer and frozen at −80° C. for at least 16 hours but not more than 10 days. For the binding assay the homogenate was thawed at 37° C., centrifuged and the pellet was washed three times as above in a Tris-HCl 5 mM, pH 7.4 cold buffer. The final pellet was resuspended in the same buffer and used at a final concentration of […]. ^3H-Ro 25-6981 binding experiments were performed using a Tris-HCl 50 mM, pH 7.4 buffer. For displacement experiments 5 nM of ^3H-Ro 25-6981 were used and non specific binding was measured using 10 mM of tetrahydroisoquinoline and usually it accounts for 10% of the total. The incubation time was 2 hours at 4° C. and the assay was stopped by filtration on Whatmann GF/B glass fiber filters (Unifilter-96, Packard, Zürich, Switzerland). The filters were washed 5 times with cold buffer. The radioactivity on the filter was counted on a Packard Top-count microplate scintillation counter after addition of […] of microscint 40 (Canberra Packard S.A., Zuirich, Switzerland).
The effects of compounds were measured using a minimum of 8 concentrations and repeated at least once.
`Cc1ccc(-c2cncc(Cn3ccnc3C)c2)cc1Cl` [Example 136, 3-(3-Chloro-4-methyl-phenyl)-5-(2-methyl-imidazol-1-yl-methyl)-pyridine Hydrochloride (1:1)] gave an IC50 of 80 nM.

`Cc1nccn1Cc1cncc(-c2cc(F)cc(C(F)(F)F)c2)c1` [Example 227, 3-(3-Fluoro-5-trifluoromethyl-phenyl)-5-(2-methyl-imidazol-1-ylmethyl)-pyridine] yielded an IC50 of 30 nM.

Compound `Cc1cc(-n2cnc(Cn3ccnc3N)c2)ccc1Cl` [Example 105, 1-[1-(4-Chloro-3-methyl-phenyl)-1H-imidazol-4-yl-methyl]-1H-imidazol-2-yl-amine-, Hydrochloride (1:2)] came in with an IC50 of 1 nM.

For `Cc1nccn1Cc1cncc(-c2ccc(F)c(C(F)F)c2)c1` [Example 225, 3-(3-Difluoromethyl-4-fluoro-phenyl)-5-(2-methyl-imidazol-1-ylmethyl)-pyridine], the 50% inhibitory concentration (IC50) was found to be 10 nM. This IC50 lies about 10-fold higher than the previous one.

With “4-Imidazol-1-ylmethyl-1-(3-methylsulfanyl-phenyl)-1H-imidazole Hydrochloride (1:2) [Example 145]”, the IC50 was determined as 54 nM.

For `Cc1ccc(-n2cnc(Cn3ccnc3)c2)cc1C` [Example 21], the IC50 is 43 nM.

`Clc1ccc(-n2cnc(Cn3ccnc3C3CC3)c2)cc1Cl` [Example 229, 1H-Imidazole, 2-Cyclopropyl-1-[[1-(3,4-dichlorophenyl)-1H-imidazol-4-yl]methyl]-,] gave an IC50 of 12 nM.

Turning to `CCc1nccn1Cc1cn(-c2ccc(F)c(C(C)(F)F)c2)cn1` [Example 151, 1H-Imidazole, 1-[[1-1-[3-(1,1-Difluoroethyl)-4-fluorophenyl]-1H-imidazol-4-yl]methyl]-ethyl-, Hydrochloride (1:2)], the IC50 is 14 nM.

As for `Cc1nccn1Cc1cncc(-c2ccc(Cl)c(C(F)(F)F)c2)c1` [Example 141, 3-(4-Chloro-3-trifluoromethyl-phenyl)-5-(-2-methyl-imidazol-1-yl-methyl)-pyridine Hydrochloride (1:1)], the IC50 is 39 nM. Compared with the last compound, the IC50 is about 2.8-fold higher.

Turning to `CSc1cccc(-n2cnc(Cn3ccnc3)c2)c1` [Example 168, 4-Imidazol-1-ylmethyl-1-(3-methylsulfanyl-phenyl)-1H-imidazole Hydrochloride (1:2)], the IC50 was 38 nM. This IC50 and that of the compound before are within 1.5-fold of each other.

In turn, `Cc1cc(-c2c[nH]c(Cn3ccnc3C)n2)ccc1F` [Example 119, 1H-Imidazole, 1-[[4-(4-Fluoro-3-methylphenyl)-1H-imidazol-2-yl]methyl]-2-methyl-, Hydrochloride (1:2)] came in with an IC50 of 46 nM.

Take `Cc1nccn1Cc1cncc(-c2ccc3c(c2)CCC3)c1` [Example 139, 3-Indan-5-yl-5-(2-methyl-imidazol-1-yl-methyl)-pyridine Hydrochloride (1:1)]: the IC50 is 65 nM.

Test system in another series: not given
Assay: not given
Settings: not given
In the case of `Cc1nccn1Cc1cn(-c2ccc3ccccc3c2)cn1` (as salt: hydrochloride) [Example 155, 1H-Imidazole, 2-Methyl-1-[[1-(naphtalen-2-yl)-1H-imidazol-4-yl]methyl]-, Hydrochloride (1:2)], the melting point lay within 247 to 248 °C.

Compound `Cc1nccn1Cc1ccn(-c2ccc(Cl)c(Cl)c2)n1.Cl` came in with a melting point of 204 to 205 °C.

For `Cl.Cl.Clc1cccc(-n2cnc(Cn3ccnc3)c2)c1`, the melting point is > 200 °C (dec.).

Regarding `Cc1cnc(C)n1Cc1cn(-c2ccc(Cl)c(Cl)c2)cn1.Cl.Cl`, the melting point was more than 250 °C.

`CCc1nccn1Cc1cn(-c2ccc(Cl)cc2F)cn1.Cl.Cl`: the melting point fell in the range of 248 to 249 °C.

Compound `CCc1nccn1Cc1cn(-c2ccc(Cl)cc2)cn1.Cl.Cl` gave a melting point of 200 to 201 °C.

In turn, `COc1cccc(-n2cnc(Cn3ccnc3C)c2)c1.Cl.Cl` returned a melting point of 242 to 243 °C.

Consider `Cc1nccn1Cc1cn(-c2cccc(C(F)(F)F)c2)cn1.Cl.Cl`, for which the melting point was 218 to 220 °C.

`Cc1nccn1Cc1cn(-c2ccc(Cl)cn2)cn1` (as salt: sodium) [Example 212, 5-Chloro-2-[4-(2-methyl-imidazol-1-ylmethyl)-imidazol-1-yl]-pyridine]: the melting point is 192 to 196 °C.

In the case of `CCc1nccn1Cc1cn(-c2ccc3ccccc3n2)cn1` (as salt: sodium) [Example 205, 2-[4-(2-Ethyl-imidazol-1-ylmethyl)-imidazol-1-yl]-quinoline], the melting point is > 80 °C (dec.).

With `Cc1ncn(Cc2cn(-c3ccc(Cl)c(Cl)c3)cn2)c1C.Cl.Cl`, the melting point is more than 250 °C.

`Cc1cc(-n2cnc(Cn3ccnc3)c2)ccc1F.Cl.Cl` displayed a melting point of 242 to 243 °C.

`CCc1nccn1Cc1cn(-c2ccc(C)c(F)c2)cn1.Cl.Cl` returned a melting point of more than 250 °C.

`Cl.Cl.Fc1ccc(-n2cnc(Cn3ccnc3)c2)cc1Cl`: the melting point is 210 to 212 °C.

With `CCc1nccn1Cc1cn(-c2ccc(OCc3ccccc3)cc2)cn1.Cl.Cl`, the melting point lay in the range of 222 to 223 °C.

`CCc1nccn1Cc1cn(-c2ccc(OC(F)(F)F)c(Cl)c2)cn1.Cl.Cl`: the melting point was more than 250 °C.

For the compound `CCc1nccn1Cc1cn(-c2ccc(C(C)C)c(C)c2)cn1.Cl.Cl`, the melting point is > 180 °C (dec.).

`CCc1nccn1Cc1cn(-c2ccc(SC)cc2)cn1.Cl.Cl` came in with a melting point of 161 to 162 °C.

For the compound `CCc1nccn1Cc1cn(-c2cccc(C(F)F)c2)cn1.Cl.Cl`, the melting point is 219 to 220 °C.

As for `Cl.Cl.Fc1cc(Cl)ccc1-n1cnc(Cn2ccnc2)c1`, the melting point is > 212 °C (dec.).

`Cc1cc(-n2cnc(Cn3ccnc3N)c2)ccc1Cl` (as salt: hydrochloride) [Example 105, 1-[1-(4-Chloro-3-methyl-phenyl)-1H-imidazol-4-yl-methyl]-1H-imidazol-2-yl-amine-, Hydrochloride (1:2)] gave a melting point of 230 to 233 °C.

Turning to `Cc1nccn1Cc1cn(-c2cc(F)cc(Br)c2)cn1.Cl.Cl`, the melting point is > 200 °C (dec.).

Compound `CCc1nccn1Cc1cn(-c2ccc(C)c(C(F)(F)F)c2)cn1.Cl.Cl` returned a melting point of more than 250 °C.

Turning to `CNc1nccn1Cc1ncn(-c2ccc(Cl)c(Cl)c2)c1CO.Cl`, the melting point is > 180 °C (dec.).

The compound `Cc1nccn1Cc1cn(-c2cc3ccccc3cn2)cn1.Cl.Cl` displayed a melting point of more than 250 °C.

Take `COc1cc(-n2cnc(Cn3ccnc3)c2)cc(C(F)(F)F)c1.Cl.Cl`: the melting point lay within 244 to 246 °C.

For `Cl.Cl.Fc1cc(-n2cnc(Cn3ccnc3)c2)cc(C(F)(F)F)c1`, the melting point was in the range of 233 to 234 °C.

Consider `CCc1nccn1Cc1cn(-c2ccc3c(c2)OC(F)(F)O3)cn1.Cl.Cl`, for which the melting point was 237 to 239 °C (dec.).

In turn, `COc1cc(-n2cnc(Cn3ccnc3C)c2)ccc1Cl.Cl.Cl` registered a melting point of more than 250 °C.

As to `CCc1nccn1Cc1cn(-c2ccc(F)c(C(F)(F)F)c2)cn1.Cl.Cl`, the melting point was > 238 °C (dec.).

The compound `Cc1nccn1Cc1cn(-c2ccc3c(c2)OC(F)(F)O3)cn1.Cl.Cl` yielded a melting point of more than 250 °C.

Take `COc1ccc(-n2cnc(Cn3ccnc3)c2)cc1Cl.Cl.Cl`: the melting point is 245 to 246 °C.

In turn, `Cl.Cl.FC(F)Oc1cccc(-n2cnc(Cn3ccnc3)c2)c1` showed a melting point of 205 to 206 °C.

For `Brc1ccc(-n2cnc(Cn3ccnc3)c2)cc1.Cl.Cl`, the melting point lay within 237 to 239 °C.

In the case of `Cl.Cl.Fc1ccc(-n2cnc(Cn3ccnc3)c2)cc1C(F)(F)F`, the melting point is > 246 °C (dec.).

In turn, `Cc1nccn1Cc1cn(-c2ccc(-c3ccccc3)cc2)cn1.Cl.Cl` returned a melting point of 169 to 175 °C.

Turning to `Cc1nccn1Cc1cn(-c2cccc3cccnc23)cn1` (as salt: sodium) [Example 222, 8-[4-(2-Methyl-imidazol-1-ylmethyl)-imidazol-1-yl]-quinoline], the melting point lay within 150 to 154 °C.

`CCc1nccn1Cc1cn(-c2ccc(F)c(C)c2)cn1.Cl.Cl` had a melting point of 210 to 212 °C.

Regarding `Cl.Cl.FC(F)c1cccc(-n2cnc(Cn3ccnc3)c2)c1`, the melting point lay in the range of 216 to 217 °C.

For the compound `CCc1nccn1Cc1cn(-c2ccc3c(c2)COC3)cn1.Cl.Cl`, the melting point was > 108 °C (dec.).

In turn, `CCc1nccn1Cc1cn(-c2cc(OC)cc(C(F)(F)F)c2)cn1` (as salt: hydrochloride) [Example 181] gave a melting point of 245 to 246 °C.

With `CCc1nccn1Cc1cn(-c2ccc(C)c(C)c2)cn1.Cl.Cl`, the melting point was more than 250 °C.

Consider `Cc1ccc(-n2cnc(Cn3ccnc3C)c2)cc1F.Cl.Cl`, for which the melting point is more than 250 °C.

The compound `Cc1ccc(-n2cnc(Cn3ccnc3C)c2)cc1C.Cl.Cl` gave a melting point of 249 to 251 °C.

`Cc1nccn1Cc1cn(-c2ccc3c(c2)COC3)cn1.Cl.Cl` showed a melting point of more than 250 °C.
